Measured values published in BindingDB's records for doi:10.1016/j.bmcl.2005.05.101 (Glaxosmithkline, 2005).

How the values were obtained:
[1] = biological target: T1, Dimer of Gag-Pol polyprotein [501-599,Q508K,L534I,L564I,C568A,C596A] (Human immunodeficiency virus 1, UniProt P03367, C568A/C596A/L534I/L564I/Q508K); assay: Protease Inhibition Assay
T1 construct: 501-599
Method: The Ki values were determined using fluorogenic substrate, 2-(aminobenzoyl)-Thr-Ile-Nle-Phe(p-NO2)-Gln-ArgNH2. A standard curve relating changes in fluorescent intensity to changes in concentration of product was used to convert fluorescent changes into molar velocities. The amount of cleavage was determined by HPLC.

[2] = biological target: T1, Dimer of Gag-Pol polyprotein [501-599,Q508K,L534I,L564I,C568A,C596A]; assay: Protease Inhibition Assay; settings: pH 6.8; 25 °C

COc1ccc(S(=O)(=O)N(C[C@@H](O)[C@H](Cc2ccccc2)NC(=O)O[C@H]2CO[C@H]3OCC[C@H]32)OC2CCCCC2)cc1 [N-alkoxysulfonamide analog entry q] gave a Ki [1] of less than 5 pM.
O=C(N[C@@H](Cc1ccccc1)[C@H](O)CN(OC1CCCC1)S(=O)(=O)c1ccc(O)cc1)O[C@H]1CO[C@H]2OCC[C@H]21 [N-alkoxysulfonamide analog entry n] gave a Ki [1] of less than 5 pM.
For O=C(N[C@@H](Cc1ccccc1)[C@H](O)CN(OC1CCCCC1)S(=O)(=O)c1ccc(O)cc1)O[C@H]1CO[C@H]2OCC[C@H]21 [(3R,3aS,6aR)-hexahydrofuro[2,3-b]furan-3-yl N-[(2S,3R)-4-[(cyclohexyloxy)(4-hydroxybenzene)sulfonamido]-3-hydroxy-1-phenylbutan-2-yl]carbamate], the Ki [1] was less than 5 pM.
Compound O=C(N[C@@H](Cc1ccccc1)[C@H](O)CN(OC1CCCCC1)S(=O)(=O)c1ccc2c(c1)OCCO2)O[C@H]1CO[C@H]2OCC[C@H]21 [(3R,3aS,6aR)-hexahydrofuro[2,3-b]furan-3-yl N-[(2S,3R)-4-[(cyclohexyloxy)(2,3-dihydro-1,4-benzodioxine-6-)sulfonamido]-3-hydroxy-1-phenylbutan-2-yl]carbamate] has a Ki [1] of less than 5 pM.
Work on O=C(N[C@@H](Cc1ccccc1)[C@H](O)CN(OC1CCCCC1)S(=O)(=O)c1ccc2c(c1)OCO2)O[C@H]1CO[C@H]2OCC[C@H]21 [(3R,3aS,6aR)-hexahydrofuro[2,3-b]furan-3-yl N-[(2S,3R)-4-[2H-1,3-benzodioxole-5-(cyclohexyloxy)sulfonamido]-3-hydroxy-1-phenylbutan-2-yl]carbamate] yielded a Ki [1] of less than 5 pM.
For O=C(N[C@@H](Cc1ccccc1)[C@H](O)CN(OC1CCCC1)S(=O)(=O)c1ccc2c(c1)OCCO2)O[C@H]1CO[C@H]2OCC[C@H]21 [N-alkoxysulfonamide analog entry p], the Ki [1] was less than 5 pM.
With COc1ccc(S(=O)(=O)N(C[C@@H](O)[C@H](Cc2ccccc2)NC(=O)O[C@H]2CCOC2)OC2CCCC2)cc1 [(3S)-oxolan-3-yl N-[(2S,3R)-4-[(cyclopentyloxy)(4-methoxybenzene)sulfonamido]-3-hydroxy-1-phenylbutan-2-yl]carbamate] the Ki ([1]; pH 6.8, 25 °C) was 190 pM and the IC50 [2] was 738000 pM.
COc1ccc(S(=O)(=O)N(C[C@@H](O)[C@H](Cc2ccccc2)NC(=O)O[C@H]2CO[C@H]3OCC[C@H]32)OC2CCCC2)cc1 [N-alkoxysulfonamide analog entry k] was tested, and the Ki ([1]; pH 6.8, 25 °C) was less than 5 pM and the IC50 [2] was 6000 pM.
Work on COc1ccc(S(=O)(=O)N(C[C@@H](O)[C@H](Cc2ccccc2)NC(=O)[C@@H](NC(=O)c2ccc3ccccc3n2)C(N)=O)OC2CCCC2)cc1 [N-alkoxysulfonamide analog entry j] yielded a Ki ([1]; pH 6.8, 25 °C) of less than 5 pM and an IC50 [2] of 24000 pM.
Nc1ccc(S(=O)(=O)N(C[C@@H](O)[C@H](Cc2ccccc2)NC(=O)O[C@H]2CO[C@H]3OCC[C@H]32)OC2CCCC2)cc1 [(3R,3aS,6aR)-hexahydrofuro[2,3-b]furan-3-yl N-[(2S,3R)-4-[(4-aminobenzene)(cyclopentyloxy)sulfonamido]-3-hydroxy-1-phenylbutan-2-yl]carbamate] gave a Ki [1] of less than 5 pM.
In the case of Nc1cccc(S(=O)(=O)N(C[C@@H](O)[C@H](Cc2ccccc2)NC(=O)O[C@H]2CO[C@H]3OCC[C@H]32)OC2CCCC2)c1 [(3R,3aS,6aR)-hexahydrofuro[2,3-b]furan-3-yl N-[(2S,3R)-4-[(3-aminobenzene)(cyclopentyloxy)sulfonamido]-3-hydroxy-1-phenylbutan-2-yl]carbamate], the Ki [1] is reported as less than 5 pM.
With O=C(N[C@@H](Cc1ccccc1)[C@H](O)CN(OC1CCCC1)S(=O)(=O)c1ccc2c(c1)OCO2)O[C@H]1CO[C@H]2OCC[C@H]21 [(3R,3aS,6aR)-hexahydrofuro[2,3-b]furan-3-yl N-[(2S,3R)-4-[2H-1,3-benzodioxole-5-(cyclopentyloxy)sulfonamido]-3-hydroxy-1-phenylbutan-2-yl]carbamate] the Ki [1] was less than 5 pM.
Compound COC(=O)N[C@H](C(=O)N[C@@H](Cc1ccccc1)[C@H](O)CN(OC1CCCC1)S(=O)(=O)c1ccc(OC)cc1)C(C)(C)C [methyl N-[(1S)-1-{[(2S,3R)-4-[(cyclopentyloxy)(4-methoxybenzene)sulfonamido]-3-hydroxy-1-phenylbutan-2-yl]carbamoyl}-2,2-dimethylpropyl]carbamate] has an IC50 [2] of 203000 pM.
